In patent US9084424B2, “N-benzyl heterocyclic carboxamides” (BAYER INTELLECTUAL PROPERTY GMBH, priority 2010, dated 2015):

Columns and labels:
[1] = log P by HPLC on reversed-phase column (EEC Directive 79/831 Annex V.A8); assay type: physicochemical; settings: 0.1% aqueous formic acid and acetonitrile, linear gradient 10% to 90% acetonitrile
Procedure, shortened: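 Gradient elution (10% to 90% acetonitrile, 0.1% aqueous formic acid) at 40° C; log P interpolated linearly between flanking alkan-2-one standards (3 to 16 carbons).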

Sphaerotheca fuliginea = assay: In vivo preventive test on Sphaerotheca fuliginea (cucumber); settings: preventive spray, 500 ppm of active ingredient, evaluated 7 days after inoculation
Method: In Vivo Preventive Test on Sphaerotheca fuliginea (Cucumber)
(§1) Solvent: 49 parts by weight of N,N-dimethylformamide
(§2) Emulsifier: 1 part by weight of alkylarylpolyglycolether
(§3) To produce a suitable preparation of active compound, 1 part by weight of active compound is mixed with the stated amounts of solvent and emulsifier, and the concentrate is diluted with water to the desired concentration.
To test for preventive activity, young plants are sprayed with the preparation of active compound at the stated rate of application. After the spray coating has dried on, the plants are inoculated with an aqueous spore suspension of Sphaerotheca fuliginea. The plants are then placed in a greenhouse at approximately 23° C. and a relative atmospheric humidity of approximately 70%.
(§4) The test is evaluated 7 days after the inoculation. 0% means an efficacy which corresponds to that of the untreated control, while an efficacy of 100% means that no disease is observed.

Alternaria solani = assay: In vivo preventive test on Alternaria solani (tomato); settings: preventive spray, 500 ppm of active ingredient, evaluated 7 days after inoculation
Method: In Vivo Preventive Test on Alternaria Solani (Tomato)
as §1, §2, §3
To test for preventive activity, young plants are sprayed with the preparation of active compound at the stated rate of application. One day after this treatment, the plants are inoculated with an aqueous spore suspension of Alternaria solani. The plants remain for one day in an incubation cabinet at approximately 22° C. and a relative atmospheric humidity of 100%. Then the plants are placed in an incubation cabinet at approximately 20° C. and a relative atmospheric humidity of 96%.
The test is evaluated 7 days after the inoculation. 0% means an efficacy which corresponds to that of the untreated control while an efficacy of 100% means that no disease is observed.

Pyrenophora teres = assay: In vivo preventive test on Pyrenophora teres (barley); settings: preventive spray, 500 ppm of active ingredient, evaluated 7-9 days after inoculation
Procedure, shortened: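 Young barley plants were sprayed with compound formulated in N,N-dimethylacetamide/emulsifier and diluted with water, then inoculated with P. teres spores one day later. After 48 h at 22° C., 100% humidity, plants stood in a greenhouse (~20° C., ~80% humidity); efficacy versus untreated control was scored 7-9 days post-inoculation.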

Leptosphaeria nodorum = assay: In vivo preventive test on Leptosphaeria nodorum (wheat); settings: preventive spray, 500 ppm of active ingredient, evaluated 7-9 days after inoculation
Method: In Vivo Preventive Test on Leptosphaeria nodorum (Wheat)
(§5) Solvent: 49 parts by weight of N,N-dimethylacetamide
(§6) Emulsifier: 1 part by weight of alkylaryl polyglycol ether
as §3
To test for preventive activity, young plants are sprayed with a preparation of active compound at the stated rate of application. One day after this treatment, the plants are inoculated with an aqueous spore suspension of Leptosphaeria nodorum. The plants remain for 48 hours in an incubation cabinet at 22° C. and a relative atmospheric humidity of 100%. Then the plants are placed in a greenhouse at a temperature of approximately 22° C. and a relative atmospheric humidity of approximately 90%.
The test is evaluated 7-9 days after the inoculation. 0% means an efficacy which corresponds to that of the untreated control, while an efficacy of 100% means that no disease is observed.
Under these conditions, good (at least 70%) to excellent protection (at least 95%) is observed at a dose of 500 ppm of active ingredient with the following compounds from table D: […]

Septoria tritici = assay: In vivo preventive test on Septoria tritici (wheat); settings: preventive spray, 500 ppm of active ingredient, evaluated 21 days after inoculation
Method: In Vivo Preventive Test on Septoria tritici (Wheat)
as §5, §6
(§7) To produce a suitable preparation of active compound, 1 part by weight of active compound or active compound combination is mixed with the stated amounts of solvent and emulsifier, and the concentrate is diluted with water to the desired concentration.
(§8) To test for preventive activity, young plants are sprayed with the preparation of active compound or active compound combination at the stated rate of application.
After the spray coating has been dried, the plants are sprayed with a spore suspension of Septoria tritici. The plants remain for 48 hours in an incubation cabinet at approximately 20° C. and a relative atmospheric humidity of approximately 100% and afterwards for 60 hours at approximately 15° C. in a translucent incubation cabinet at a relative atmospheric humidity of approximately 100%.
The plants are placed in the greenhouse at a temperature of approximately 15° C. and a relative atmospheric humidity of approximately 80%.
The test is evaluated 21 days after the inoculation. 0% means an efficacy which corresponds to that of the untreated control, while an efficacy of 100% means that no disease is observed.

Puccinia triticina = assay: In vivo preventive test on Puccinia triticina (wheat); settings: preventive spray, 500 ppm of active ingredient, evaluated 8 days after inoculation
Method: In Vivo Preventive Test on Puccinia triticina (Wheat)
as §5, §6, §7, §8
After the spray coating has been dried, the plants are sprayed with a spore suspension of Puccinia triticina. The plants remain for 48 hours in an incubation cabinet at approximately 20° C. and a relative atmospheric humidity of approximately 100%.
The plants are placed in the greenhouse at a temperature of approximately 20° C. and a relative atmospheric humidity of approximately 80%.
The test is evaluated 8 days after the inoculation. 0% means an efficacy which corresponds to that of the untreated control, while an efficacy of 100% means that no disease is observed.

[2] = tested on: Blumeria graminis f.sp. hordei; assay: In vivo preventive test on Blumeria graminis (barley); settings: preventive spray, 500 ppm of active ingredient, evaluated 7 days after inoculation
Method: In Vivo Preventive Test on Blumeria graminis (Barley)
as §5, §6, §7, §8
After the spray coating has been dried, the plants are dusted with spores of Blumeria graminis f.sp. hordei.
The plants are placed in the greenhouse at a temperature of approximately 18° C. and a relative atmospheric humidity of approximately 80% to promote the development of mildew pustules.
as §4

[3] = HPLC, reversed-phase C 18, 40° C.
[4] = HPLC on reversed-phase column (C 18), 40° C.

Row | Compound | logP [1, 3] | logP [1, 4] | Efficacy (Sphaerotheca fuliginea) [%] | Efficacy (Alternaria solani) [%] | Efficacy (Pyrenophora teres) [%] | Efficacy (Leptosphaeria nodorum) [%] | Efficacy (Septoria tritici) [%] | Efficacy (Puccinia triticina) [%] | Efficacy [2] [%]
1 | CC(c1ccccc1Cl)N(C)C(=S)c1c(C(F)F)nn(C)c1F (racemic) [Example 18] | 3.44 | – | 90 | 95 | 100 | 95 | – | – | –
2 | CC(NC(=O)c1c(C(F)F)nn(C)c1F)c1cccc(Cl)c1Cl (racemic) [Example 29] | 3.13 | – | – | 94 | 100 | – | 88 | – | –
3 | Cn1nc(C(F)F)c(C(=O)N(Cc2ccc(Cl)cc2Cl)C2CCC2)c1Cl [Example 30] | 4.39 | – | – | – | 100 | 90 | – | – | –
4 | Cn1nc(C(F)F)c(C(=O)N(Cc2ccc(Cl)cc2Cl)C2CCC2)c1F [Example 31] | 4.19 | – | – | – | 100 | 80 | – | – | –
5 | Cn1nc(C(F)F)c(C(=O)NC(C)(C)c2ccc(Cl)cc2Cl)c1F [Example 39] | 4.39 | – | 95 | 70 | 95 | 90 | – | – | –
6 | CC(NC(=S)c1c(C(F)F)nn(C)c1Cl)c1ccc(Cl)cc1Cl (centres unmarked) [Example 44] | 3.99 | – | – | 100 | 100 | 89 | – | – | –
7 | CON(C(=O)c1c(C(F)F)nn(C)c1F)C(C)c1ccc(Cl)cc1Cl (centres unmarked) [Example 45] | 3.65 | – | 100 | – | 100 | 95 | – | – | –
8 | CC(c1cc(Cl)ccc1Cl)N(C)C(=O)c1c(C(F)F)nn(C)c1F (centres unmarked) [Example 56] | 3.15 | – | 95 | 100 | 100 | 70 | – | – | –
9 | CCN(Cc1ccccc1C(C)C)C(=O)c1c(C(F)F)nn(C)c1F [Example 68] | 3.42 | – | 100 | 80 | 100 | – | 100 | 70 | 100
10 | CC(C)c1ccccc1CN(C)C(=O)c1c(C(F)F)nn(C)c1F [Example 72] | 3.11 | – | 98 | 95 | 100 | 78 | 90 | – | 100
11 | CC(C)c1ccccc1CNC(=O)c1c(C(F)F)nn(C)c1F [Example 74] | 3.02 | – | 95 | 95 | 100 | 80 | – | – | –
12 | CON(Cc1ccccc1C(C)C)C(=O)c1c(C(F)F)nn(C)c1F [Example 76] | 3.37 | – | 93 | 94 | – | 89 | – | – | –
13 | CC(C)c1ccccc1CNC(=O)c1c(C(F)F)nn(C)c1Cl [Example 79] | 3.19 | – | – | – | 95 | 94 | – | – | –
14 | Cn1nc(C(F)F)c(C(=O)N(Cc2c(Cl)cccc2C(F)(F)F)C2CCC2)c1F [Example 90] | 3.81 | – | 100 | 95 | 100 | – | 100 | 95 | 100
15 | Cn1nc(C(F)F)c(C(=O)N(Cc2ccccc2[Si](C)(C)C)C2CCC2)c1F [Example 98] | 4.61 | – | 96 | 70 | – | – | – | 95 | –
16 | CCN(Cc1ccccc1[Si](C)(C)C)C(=O)c1c(C(F)F)nn(C)c1F [Example 99] | 4.09 | – | 95 | 95 | 95 | – | – | 100 | –
17 | C=CCN(Cc1ccccc1[Si](C)(C)C)C(=O)c1c(C(F)F)nn(C)c1F [Example 100] | 4.27 | – | – | 80 | – | – | – | 80 | –
18 | C#CCN(Cc1ccccc1[Si](C)(C)C)C(=O)c1c(C(F)F)nn(C)c1F [Example 101] | 3.93 | – | – | 70 | 80 | – | – | 90 | –
19 | Cn1nc(C(F)F)c(C(=O)NCc2ccccc2SC(F)(F)F)c1Cl [Example 106] | – | 3.29 | – | – | 90 | – | – | 80 | –
20 | CC(c1cc(Cl)cc(Cl)c1)N(C)C(=O)c1c(C(F)F)nn(C)c1F (centres unmarked) [Example 117] | – | 3.46 | 95 | 100 | 100 | 70 | – | 70 | –
21 | CC(c1cc(Cl)cc(Cl)c1)N(C)C(=S)c1c(C(F)F)nn(C)c1F (centres unmarked) [Example 118] | – | 4.24 | 95 | 100 | 100 | 70 | – | – | –

Continued, in another order:

Row | logP [1, 3] | logP [1, 4] | Compound | Efficacy (Sphaerotheca fuliginea) [%] | Efficacy (Alternaria solani) [%] | Efficacy (Pyrenophora teres) [%] | Efficacy (Leptosphaeria nodorum) [%] | Efficacy (Septoria tritici) [%] | Efficacy (Puccinia triticina) [%] | Efficacy [2] [%]
22 | – | 3.59 | CC(c1ccc(Oc2ccccc2)cc1)N(C)C(=O)c1c(C(F)F)nn(C)c1F (racemic) [Example 154] | – | 95 | 100 | 70 | – | – | –
23 | – | 3.41 | Cn1nc(C(F)F)c(C(=O)NC2(c3ccc(Cl)c(C(F)(F)F)c3)CC2)c1Cl [Example 126] | – | – | 95 | – | – | 78 | –
24 | – | 3.42 | Cn1nc(C(F)F)c(C(=O)NCc2ccc(C(C)(C)C)cc2)c1F [Example 135] | – | – | – | 75 | – | – | –
25 | – | 3.58 | Cn1nc(C(F)F)c(C(=O)NCc2ccc(C(C)(C)C)cc2)c1Cl [Example 136] | – | – | – | 70 | – | – | –
26 | – | 2.53 | CN(Cc1ncc(Cl)cc1Cl)C(=O)c1c(C(F)F)nn(C)c1F [Example 179] | – | 90 | 100 | 70 | – | – | –
27 | – | 2.73 | CN(Cc1ncc(Cl)cc1Cl)C(=O)c1c(C(F)F)nn(C)c1Cl [Example 180] | – | 80 | 100 | – | – | 80 | –
28 | – | 2.73 | CON(Cc1ncc(Cl)cc1Cl)C(=O)c1c(C(F)F)nn(C)c1F [Example 181] | – | 80 | 100 | 70 | – | 70 | –
29 | – | 4.11 | Cn1nc(C(F)F)c(C(=O)N(Cc2ncc(Cl)cc2Cl)C2CCCC2)c1Cl [Example 184] | – | – | – | – | – | 70 | –
30 | – | 4.44 | CC(c1ncc(Cl)cc1Cl)N(C(=O)c1c(C(F)F)nn(C)c1F)C1CCCC1 (centres unmarked) [Example 187] | – | – | 90 | 80 | – | – | –
